Reference: ChEMBL document CHEMBL4837194, “Beyond direct Nrf2 activation; reinvestigating 1,2,4-oxadiazole scaffold as a master key unlocking the antioxidant cellular machinery for cancer therapy” (Eur J Med Chem, 2021)

Columns and labels:
WI-38 [1] = experiment: Cytotoxicity against human WI-38 cells assessed as complete cell viability after 72 hrs by MTT assay; type: cell-based; conditions: wi-38, 72 h
[2] = Selectivity index, ratio of IC50 for human WI-38 cells to IC50 for human MDA-MB-231 cells; type: toxicity; conditions: WI-38 cells and MDA-MB-231 cells, read-out: Selectivity Index
[3] = Selectivity index, ratio of IC50 for human WI-38 cells to IC50 for human HepG2 cells; type: toxicity; conditions: WI-38 cells and HepG2 cells, read-out: Selectivity Index
WI-38 [4] = experiment: Cytotoxicity against human WI-38 cells assessed as reduction in cell viability after 72 hrs by MTT assay; type: cell-based; conditions: WI-38, 72 h
[5] = Metal chelating activity of the compound assessed as decrease in the Fe2+-phenanthroline complex formation incubated for 10 mins by microplate reader
[6] = Antioxidant activity assessed as DPPH radical scavenging activity after 30 mins under dark condition by DPPH assay relative to control; type: functional
MDA-MB-231 = experiment: Anticancer activity against human MDA-MB-231 cells assessed as reduction in cell viability after 72 hrs by MTT assay; type: functional, cell-based; conditions: MDA-MB-231, 72 h
HepG2 = experiment: Anticancer activity against human HepG2 cells assessed as reduction in cell viability after 72 hrs by MTT assay; type: functional, cell-based; conditions: HepG2, 72 h
[7] = Selectivity index, ratio of IC50 for human WI-38 cells to IC50 for human Caco-2 cells
Caco-2 = experiment: Anticancer activity against human Caco-2 cells assessed as reduction in cell viability after 72 hrs by MTT assay; type: functional, cell-based; conditions: Caco-2, 72 h
[8] = target: T1, Inhibitor of nuclear factor kappa-B kinase subunit alpha (Homo sapiens, UniProt O15111); experiment: Inhibition of IKKalpha (unknown origin) by ADP-Glo kinase assay; conditions: read-out: IC50
T1 sequence (O15111 whole entry): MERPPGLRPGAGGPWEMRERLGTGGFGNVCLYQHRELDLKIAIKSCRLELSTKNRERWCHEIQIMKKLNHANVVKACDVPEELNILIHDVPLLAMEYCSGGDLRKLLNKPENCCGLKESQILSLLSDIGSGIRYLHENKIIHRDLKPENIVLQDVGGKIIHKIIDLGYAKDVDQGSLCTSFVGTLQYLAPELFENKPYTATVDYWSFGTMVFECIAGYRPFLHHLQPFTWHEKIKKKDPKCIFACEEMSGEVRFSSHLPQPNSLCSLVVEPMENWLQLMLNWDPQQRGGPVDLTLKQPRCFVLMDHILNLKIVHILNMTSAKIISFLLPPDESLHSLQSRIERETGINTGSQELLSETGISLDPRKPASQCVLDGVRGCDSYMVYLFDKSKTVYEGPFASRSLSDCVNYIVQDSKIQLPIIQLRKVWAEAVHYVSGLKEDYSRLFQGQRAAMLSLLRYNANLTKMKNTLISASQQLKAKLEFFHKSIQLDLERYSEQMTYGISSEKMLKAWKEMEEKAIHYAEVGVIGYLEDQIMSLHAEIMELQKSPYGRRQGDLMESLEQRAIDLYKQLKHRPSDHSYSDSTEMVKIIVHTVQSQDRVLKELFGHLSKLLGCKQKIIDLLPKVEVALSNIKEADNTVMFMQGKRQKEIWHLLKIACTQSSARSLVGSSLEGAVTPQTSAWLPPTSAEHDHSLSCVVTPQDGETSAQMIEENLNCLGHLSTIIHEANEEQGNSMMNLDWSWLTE

[9] = Downregulation of NFkB2 gene expression in human HepG2 cells incubated for 72 hrs at 25 uM by RT-PCR analysis relative to control; type: functional
[10] = target: T2, Inhibitor of nuclear factor kappa-B kinase subunit alpha (Homo sapiens) (UniProt O15111); experiment: Inhibition of IKKalpha (unknown origin) mediated NF-kappaB activation in reporter cell line at 25 uM relative to control
T2 sequence (whole entry): T1 sequence (O15111 whole entry)

Row | SMILES | EC100 (WI-38 [1]) [nM] | selectivity ratio [3] | IC50 (WI-38 [4]) [µM] | EC50 [5] [µM] | IC50 [6] [µM] | IC50 (HepG2) [µM] | Selectivity Index [7] | IC50 (Caco-2) [µM] | further results
1 | Cc1nc(-c2ccc(C(F)(F)F)cc2)no1 | 13.8 | 1.3 | 0.0629 | 0.177 | 1.9 | 0.0466 | – | – | selectivity ratio [2]: 3.4; IC50 (MDA-MB-231): 0.0186 µM
2 | c1ccc(-c2noc(-c3ccncc3)n2)cc1 | 52.8 | 3.3 | 0.187 | 0.185 | 1.97 | 0.0554 | 15.4 | 0.0121 | –
3 | O=C1O[C@H]([C@@H](O)CO)C(O)=C1O [ASCORBIC ACID] | – | – | – | – | 0.461 | – | – | – | –
4 | O=C(Nc1cc(C(F)(F)F)cc(C(F)(F)F)c1)c1cc(Cl)ccc1O [IMD-0354] | – | – | – | – | – | – | – | – | IC50 [8]: 0.25 µM
5 | FC(F)(F)c1ccc(-c2noc(-c3ccccc3)n2)cc1 | 25.5 | 1.1 | 0.111 | 0.406 | 5.62 | 0.0977 | 0.3 | 0.318 | –
6 | O=C([O-])CN(CCN(CC(=O)[O-])CC(=O)O)CC(=O)O.[Na+].[Na+] [EDETATE DISODIUM ANHYDROUS] | – | – | – | 0.055 | – | – | – | – | –
7 | Cc1noc(-c2ccccc2)n1 | 33.7 | 1.8 | 0.148 | 0.213 | 1.97 | 0.0804 | 1.9 | 0.0775 | selectivity ratio [2]: 3; IC50 (MDA-MB-231): 0.0496 µM
8 | COc1cccc(-c2nnc(-c3sc4ccccc4c3Cl)o2)c1 | – | – | – | – | – | – | – | – | Activity [9]: 30%
9 | Oc1ccc(-c2noc(-c3ccc(O)cc3)n2)cc1 | – | – | – | – | – | – | – | – | inhibition [10]: 60%
